target: T1, human TLR7 (Homo sapiens, UniProt Q9NYK1); assay: HEK293-Blue-hTLR-7 cells assay (SEAP reporter, R848 stimulation); type: cell-based; conditions: HEK293-Blue-hTLR7 cells, R848 ligand, 20 hrs incubation
T1 sequence (Q9NYK1 27-1049): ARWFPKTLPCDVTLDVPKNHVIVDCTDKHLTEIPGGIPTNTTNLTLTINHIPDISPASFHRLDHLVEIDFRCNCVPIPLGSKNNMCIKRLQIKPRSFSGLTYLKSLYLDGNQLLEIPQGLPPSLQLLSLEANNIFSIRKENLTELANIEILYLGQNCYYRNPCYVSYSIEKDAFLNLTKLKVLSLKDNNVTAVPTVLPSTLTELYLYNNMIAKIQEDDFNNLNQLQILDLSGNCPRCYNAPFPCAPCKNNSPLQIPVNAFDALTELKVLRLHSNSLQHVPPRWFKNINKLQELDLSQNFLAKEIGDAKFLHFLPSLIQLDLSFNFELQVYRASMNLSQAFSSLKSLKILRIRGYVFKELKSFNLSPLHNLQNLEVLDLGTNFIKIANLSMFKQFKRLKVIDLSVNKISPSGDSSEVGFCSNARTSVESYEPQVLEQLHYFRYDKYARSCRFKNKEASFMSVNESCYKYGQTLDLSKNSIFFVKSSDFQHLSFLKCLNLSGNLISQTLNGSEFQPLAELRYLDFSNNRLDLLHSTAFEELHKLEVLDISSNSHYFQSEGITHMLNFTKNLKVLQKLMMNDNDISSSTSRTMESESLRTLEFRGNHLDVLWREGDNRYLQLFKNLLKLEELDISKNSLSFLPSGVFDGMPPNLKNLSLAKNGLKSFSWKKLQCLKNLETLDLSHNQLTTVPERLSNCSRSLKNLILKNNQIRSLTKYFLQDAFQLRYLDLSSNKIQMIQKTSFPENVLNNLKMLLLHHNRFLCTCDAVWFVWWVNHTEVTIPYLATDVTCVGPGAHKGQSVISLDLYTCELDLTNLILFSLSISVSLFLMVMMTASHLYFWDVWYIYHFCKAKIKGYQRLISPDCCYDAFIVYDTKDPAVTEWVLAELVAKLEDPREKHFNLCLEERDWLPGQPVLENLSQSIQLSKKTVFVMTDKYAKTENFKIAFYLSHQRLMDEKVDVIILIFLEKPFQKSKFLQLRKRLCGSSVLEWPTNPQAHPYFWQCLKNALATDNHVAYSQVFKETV
Procedure, shortened: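 Antagonism measured in stable HEK293-Blue-hTLR7 cells carrying an NF-κB/AP-1-driven SEAP reporter, stimulated with R848 (10 µL of 20 µM stock) with serially diluted compound, 1% DMSO, 20 h at 37 °C. Supernatant SEAP read with QUANTI-Blue after 2 h at 37 °C, absorbance 620–655 nm.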

Structure (SMILES)	IC50
N#Cc1ccc(N2CC(CN3CCNCC3)C3(CC3)C2)c2nccnc12 (centres unmarked) [Example 3, 8-[7-(piperazin-1-ylmethyl)-5-azaspiro[2.4]heptan-5-yl]quinoxaline-5-carbonitrile]	27 nM
N#Cc1ccc(N2CC(CN3CC4CCC(C3)C4N)C3(CC3)C2)c2nccnc12 (centres unmarked) [Example 4, 8-[7-[(8-Amino-3-azabicyclo[3.2.1]octan-3-yl)methyl]-5-azaspiro[2.4]heptan-5-yl]quinoxaline-5-carbonitrile]	28 nM
CN(C)[C@@H]1CCN(C[C@H]2CN(c3ccc(C#N)c4nccnc34)C[C@@H]2C(F)(F)F)C1 [Example 83, 8-[(3S,4R)-3-[[(3R)-3-(dimethylamino)pyrrolidin-1-yl]methyl]-4-(trifluoromethyl)pyrrolidin-1-yl]quinoxaline-5-carbonitrile]	25 nM
CN1CCC2(CCN(C[C@H]3CN(c4ccc(C#N)c5nccnc45)C[C@@H]3C(F)(F)F)C2)C1 (stereo partly drawn) [Example 84, 8-[(3S,4R)-3-[(7-methyl-2,7-diazaspiro[4.4]nonan-2-yl)methyl]-4-(trifluoromethyl)pyrrolidin-1-yl]quinoxaline-5-carbonitrile]	48 nM
CC1(CN)CCN(C[C@H]2CN(c3ccc(C#N)c4nccnc34)C[C@@H]2C(F)(F)F)C1 (stereo partly drawn) [Example 85, 8-[(3S,4R)-3-[[3-(aminomethyl)-3-methyl-pyrrolidin-1-yl]methyl]-4-(trifluoromethyl)pyrrolidin-1-yl]quinoxaline-5-carbonitrile]	83 nM

— patent US20210253575A1, “PYRROLIDINE AMINE COMPOUNDS FOR THE TREATMENT OF AUTOIMMUNE DISEASE” (Hoffmann-La Roche Inc., priority 2018, published 2021)
